Entries after “also recorded” stand apart in the source; their conditions may differ. {FAM} = 6-carboxyfluorescein (IDT 56-FAM); {IABkFQ} = Iowa Black FQ quencher
Columns and labels:
TtCsm6 [1] = target: T1, TtCsm6 (Thermus thermophilus, UniProt Q53W17, G18R); conditions: 100 nM TtCsm6, 10 μM cA4, FIG. 22
Procedure: (§4) Varying concentrations of nuclease (SyCsx1, PfuCsx1, or TtCsm6) in reaction buffer (2.1 NEB Buffer-50 mM NaCl, 10 mM Tris-HCl, 10 mM MgCl2, 100 μg/ml BSA) with 1 U/μl murine RNase inhibitor (NEB) and 600 nM FAM-Q reporter (IDT) was mixed with varying concentrations of cA3, cA4, cA6, rA3>P or rA4>P (Biolog or IDT). Negative control was water free of activator. Measurements were taken at 37° C. every 1 min in a Tecan Infinite 200 PRO plate reader (λex, 485 nm; λem, 535 nm).
(§5) The objective of these experiments was to determine the preferred reporters for SyCsx1, PfuCsx1, and TtCsm6 incubated with cyclic activator cA4.

PfuCsx1 [2] = assay: Reporter preference assay, PfuCsx1 activated by cA4; conditions: 100 nM PfuCsx1, 10 μM cA4, FIG. 21
Procedure: as §4, §5

SyCsx1 [3] = assay: Reporter preference assay, SyCsx1 activated by cA4; conditions: 100 nM SyCsx1, 10 μM cA4, FIG. 20
Procedure: as §4, §5

SyCsx1 [4] = assay: Activation of SyCsx1 by linear and cyclic activators (FAM-Q fluorescence); conditions: 100 nM SyCsx1, FAM-Q polyC ssRNA reporter; for activation of SyCsx1 (fluorescence time course): 37° C., FIG. 14A/14B; for rapidity of SyCsx1 activation (time until maximum fluorescence): FIG. 14B
Procedure: (§6) The objective of these experiments was to assess activation of SyCsx1, PfuCsx1, and TtCsm6 by incubating the nucleases with cyclic or linear activators.
as §4

TtCsm6 [5] = target: T1, TtCsm6; assay: Activation of TtCsm6 by linear and cyclic activators (fluorescence); conditions: 100 nM TtCsm6, RNAse Alert (IDT) reporter, FIG. 16
Procedure: as §6, §4

PfuCsx1 [6] = assay: Activation of PfuCsx1 by linear and cyclic activators (FAM-Q fluorescence); conditions: 100 nM PfuCsx1, FAM-Q polyA ssRNA reporter, FIG. 15
Procedure: as §6, §4

NucC enzyme = NucC enzyme (Escherichia coli, UniProt D7Y2H5); assay: NucC activation by cyclic and linear activator with dsM13 plasmid; assay type: biochemical; conditions: 10 nM NucC, 10 nM activator, 37° C., 4 hours
Procedure: The objective of this experiment was to achieve activation of the NucC enzyme by incubating this enzyme with its cyclic (c-triAMP) and linear (triAMP)>P activator and the dsM13 plasmid.
The conditions that were tested are outlined in Table 14 below.
A NucC Mix (dsM13) was prepared as outlined in Table 15 below.
The mixture described in Table 15 was divided into two PCT tubes. The mixture was then incubated at 37° C. for 4 hours. Next, the samples were run on a 1.5% agarose gel.

PfuCsx1 [7] = assay: Limit of detection (LoD) assay, PfuCsx1 activated by rA4>P; conditions: 100 nM PfuCsx1, FAM-Q polyA reporter; 0.01, 0.1, 1, 10 μM tested; FIG. 18
Procedure: as §4

TtCsm6 [8] = target: T1, TtCsm6; assay: Limit of detection (LoD) assay, TtCsm6 activated by rA4>P; conditions: 100 nM TtCsm6, FAM-Q polyC reporter; 0.01, 0.1, 1, 10 μM tested; FIG. 19
Procedure: as §4

SyCsx1 [9] = assay: Limit of detection (LoD) assay, SyCsx1 activated by rA4>P; conditions: 10 nM SyCsx1, FAM-Q polyC reporter; 0.1, 1, 10 nM tested; FIG. 17
Procedure: as §4

[10] = tested on: ssM13 (M13mp18 single-stranded plasmid); assay: NucC activity assay with M13 plasmid (single-stranded); assay type: biochemical; conditions: 10 nM NucC, 10 nM c(triAMP), 37° C., 2:30 hours, 1% agarose gel
Procedure: (§1) The objective of this experiment was to determine whether the NucC enzyme cleaves both double-stranded DNA and single-stranded DNA by incubating the enzyme with its cyclic activator (c-triAMP) and the dsM13 or ssM13 plasmid.
(§2) The conditions that were tested are outlined in Table 11 below.
A second NucC Mix (ssM13) was prepared as outlined in Table 13 below.
(§3) Each mixture described in Table 12 and Table 13 was divided into two PCT tubes. The mixture was then incubated at 37° C. for 2:30 hours. Next, the samples were run on a 1% agarose gel.

[11] = tested on: dsM13 (M13mp18 RF I plasmid); assay: NucC activity assay with M13 plasmid (double-stranded); assay type: biochemical; conditions: 10 nM NucC, 10 nM c(triAMP), 37° C., 2:30 hours, 1% agarose gel
Procedure: as §1, §2
A first NucC Mix (dsM13) was prepared as outlined in Table 12 below.
as §3

T1 sequence (Q53W17 whole entry G18R): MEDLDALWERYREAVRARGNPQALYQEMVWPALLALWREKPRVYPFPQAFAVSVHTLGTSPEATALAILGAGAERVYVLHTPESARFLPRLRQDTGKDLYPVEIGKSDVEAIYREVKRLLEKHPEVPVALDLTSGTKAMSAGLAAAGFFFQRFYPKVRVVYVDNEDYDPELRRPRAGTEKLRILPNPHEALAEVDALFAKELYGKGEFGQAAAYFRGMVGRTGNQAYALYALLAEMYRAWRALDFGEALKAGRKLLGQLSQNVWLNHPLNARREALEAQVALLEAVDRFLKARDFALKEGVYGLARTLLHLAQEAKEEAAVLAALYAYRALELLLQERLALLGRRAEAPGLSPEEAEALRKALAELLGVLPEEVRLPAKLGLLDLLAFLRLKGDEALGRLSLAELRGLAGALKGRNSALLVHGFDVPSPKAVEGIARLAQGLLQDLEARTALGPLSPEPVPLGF
PfuCsx1, sequence (as listed by the source): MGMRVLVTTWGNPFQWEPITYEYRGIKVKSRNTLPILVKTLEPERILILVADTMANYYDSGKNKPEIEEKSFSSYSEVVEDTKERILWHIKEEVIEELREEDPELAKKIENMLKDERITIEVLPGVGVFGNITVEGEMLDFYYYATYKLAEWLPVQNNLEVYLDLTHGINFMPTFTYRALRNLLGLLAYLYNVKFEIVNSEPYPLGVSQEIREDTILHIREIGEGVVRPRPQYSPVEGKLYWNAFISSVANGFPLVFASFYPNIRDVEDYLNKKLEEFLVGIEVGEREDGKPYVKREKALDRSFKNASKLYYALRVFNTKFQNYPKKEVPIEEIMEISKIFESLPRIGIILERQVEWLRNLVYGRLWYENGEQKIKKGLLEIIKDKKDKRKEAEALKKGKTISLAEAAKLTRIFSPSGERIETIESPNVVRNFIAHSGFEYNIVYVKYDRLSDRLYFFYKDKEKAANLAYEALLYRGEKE
SyCsx1, sequence (as listed by the source): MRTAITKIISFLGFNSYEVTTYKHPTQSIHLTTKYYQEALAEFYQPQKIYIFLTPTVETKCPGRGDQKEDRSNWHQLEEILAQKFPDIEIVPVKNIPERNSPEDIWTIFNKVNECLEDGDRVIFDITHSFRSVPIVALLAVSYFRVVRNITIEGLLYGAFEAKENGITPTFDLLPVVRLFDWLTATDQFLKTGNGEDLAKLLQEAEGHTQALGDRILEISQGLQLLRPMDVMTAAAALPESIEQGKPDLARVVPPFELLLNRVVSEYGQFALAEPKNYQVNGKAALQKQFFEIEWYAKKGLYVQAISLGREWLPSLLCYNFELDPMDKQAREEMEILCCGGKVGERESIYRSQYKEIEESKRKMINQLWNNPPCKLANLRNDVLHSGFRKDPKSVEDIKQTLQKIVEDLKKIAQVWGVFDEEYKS

Molecule: 5′-/56 FAM/rArUrGrUrCrCrCrCrUrGrArA/3IABKFQ/-3′ (AUGUCCCCUGAA; RNA, 5' {FAM}, 3' {IABkFQ}, backbone not given here) [FAM-Q UCU]
- reporter preference upon cleavage by TtCsm6 (TtCsm6 [1]): best reporters
- reporter preference upon cleavage by PfuCsx1 (PfuCsx1 [2]): best reporters
- reporter preference upon cleavage by SyCsx1 (SyCsx1 [3]): best reporters

Molecule: cyclic hexaAMP [cA6]
- activation of SyCsx1 (fluorescence time course) (SyCsx1 [4]): activated

Molecule: cyclic tetraAMP [cA4]
- activation of TtCsm6 (fluorescence time course) (TtCsm6 [5]): activated
- activation of PfuCsx1 (fluorescence time course) (PfuCsx1 [6]): activated
- activation of SyCsx1 (fluorescence time course) (SyCsx1 [4]): activated
- rapidity of SyCsx1 activation (time until maximum fluorescence) (SyCsx1 [4]): most rapid activations

Molecule: cyclic triAMP [c-triAMP]
- degradation of the dsM13 plasmid by NucC in the presence of activator (NucC enzyme; FIG. 13): complete degradation
- activation of the NucC enzyme (NucC enzyme; dsM13 plasmid, 1.5% agarose gel): achieved; also recorded: activated

Molecule: linear tetraAMP>P [rA4>P]
- activator concentration that activates PfuCsx1 (detection limit) (PfuCsx1 [7]): ≥ 1 µM
- activation of TtCsm6 (fluorescence time course) (TtCsm6 [5]): activated
- activator concentration that activates TtCsm6 (detection limit) (TtCsm6 [8]): ≥ 1 µM
- activation of PfuCsx1 (fluorescence time course) (PfuCsx1 [6]): activated
- activator concentration that activates SyCsx1 (detection limit) (SyCsx1 [9]): 0.1 nM
- activation of SyCsx1 (fluorescence time course) (SyCsx1 [4]): activated
- rapidity of SyCsx1 activation (time until maximum fluorescence) (SyCsx1 [4]): most rapid activations

Molecule: linear triAMP>P [rA3>P]
- activation of SyCsx1 (fluorescence time course) (SyCsx1 [4]): activated

B1: NucC: nuclease; amino acid sequence SEQ ID NO: 2 (NucC wild sequence) (protein, listed as Escherichia coli)
chain: MSDWSLSQLFASLHEDIQLRLGTARKAFQHPGAKGDASEGVWIEMLDTYLPKRYQAANAFVVDSLGNFSDQIDVVVFDRQYSPFIFKFNEQIIVPAESVYAVFEAKQSASADLVAYAQRKVASVRRLHRTSLPIPHAGGTYPAKPLIPILGGLLTFESDWSPALGMSFDKALNGDLSDGRLDMGCVASHGHFYFNNIDSKFNFEHGNKPATAFLFRLIAQLQFSGTVPMIDIDAYGKWLAN
- cleavage of single-stranded nucleic acid [10]: not
- cleavage of double-stranded DNA [11]: cleaved
